Data on one molecule can be found in paper PMC12214007, “CARF-dependent preferential RNA cleavage by Csm6 increases drug susceptibility of mycobacteria” (Nucleic Acids Research, 2025).

The target in this assay is Csm6 (Mtb Csm6) (Mycobacterium tuberculosis, UniProt P71635).
Chain of Csm6 (Mtb Csm6) (P71635 34-415): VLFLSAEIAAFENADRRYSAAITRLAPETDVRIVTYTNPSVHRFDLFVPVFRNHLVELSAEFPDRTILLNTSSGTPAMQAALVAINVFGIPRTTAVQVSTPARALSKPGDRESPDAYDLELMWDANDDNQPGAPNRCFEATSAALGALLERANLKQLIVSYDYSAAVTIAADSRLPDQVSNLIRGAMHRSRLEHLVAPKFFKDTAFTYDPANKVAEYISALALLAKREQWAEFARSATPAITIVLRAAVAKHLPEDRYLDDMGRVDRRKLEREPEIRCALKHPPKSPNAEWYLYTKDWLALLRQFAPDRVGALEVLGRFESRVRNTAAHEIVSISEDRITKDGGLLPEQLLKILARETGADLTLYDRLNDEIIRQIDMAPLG

`Nc1ncnc2c1ncn2[C@@H]1O[C@@H]2COP(=O)(O)O[C@H]3[C@@H](O)[C@H](n4cnc5c(N)ncnc54)O[C@@H]3COP(=O)(O)O[C@H]3[C@@H](O)[C@H](n4cnc5c(N)ncnc54)O[C@@H]3COP(=O)(O)O[C@H]3[C@@H](O)[C@H](n4cnc5c(N)ncnc54)O[C@@H]3COP(=O)(O)O[C@H]3[C@@H](O)[C@H](n4cnc5c(N)ncnc54)O[C@@H]3COP(=O)(O)O[C@H]3[C@@H](O)[C@H](n4cnc5c(N)ncnc54)O[C@@H]3COP(=O)(O)O[C@H]2[C@H]1O` [cA6, cyclic hexa-adenylate]: the “gel-based cleavage assay of Cy5-labelled 24 nt ssRNA” value was “the presence of cA6 significantly enhances the nuclease activity of Csm6”.
